How the values were obtained:
PN21 tumors = assay: Alcian blue and Ki67 staining of treated PN21 tumors; assay type: in vivo, NOD/SCID mice
Procedure: The cell differentiation capability of FZD8-Fc was also evaluated in the OMP-PN21 pancreas tumor xenograft model. PN21 tumors from studies described in Example 8 were harvested and fixed in formalin, embedded in paraffin, and tumor sections of 4 μm thickness were cut. After deparaffinization and hydration, the tumor sections were subjected to an antigen retrieval process in Tris buffer (pH 9.5). Sections were incubated with hydrogen peroxide (Sigma-Aldrich, St Louis, Mo.) for 10 minutes to block endogenous peroxidases. Anti-Ki67 antibody (clone MIB-1, Dako, Carpinteria, Calif.) in blocking buffer (3% NHS, 1% BSA, 0.1% Tween-20 in PBS) at 1:200 dilution was added to each section and incubated for 1 hour. Slides were rinsed 3 times in PBST for 5 minutes each. Anti-mouse secondary antibody conjugated with HRP (ImmPRESS™ anti-mouse, Vector Laboratories Inc., Burlingame, Calif.) was added to the slides and incubated for 30 minutes. After multiple washes with PBST, Vector Nova Red substrate (Vector Laboratories Inc., Burlingame, Calif.) was added for localization of Ki67 antigen. The sections were treated with aqueous acetic acid for 5 minutes at room temperature. The sections were then treated with 1% alcian blue in 3% aqueous acetic acid for 30 minutes and washed with water. Sections were counter-stained in neutral fast red, dehydrated and mounted. […]

PN4 tumors = assay: FACS for ESA, CD44 and CD201 on PN4 tumors treated with variants; assay type: in vivo, NOD/SCID mice; conditions: vs control antibody
Procedure: Pancreatic tumor cells from the tumor-bearing mice described above were harvested and minced into approximately 1 mm^3 fragments, followed by enzymatic digestion at 1 gram per 10 ml of 300 μg/ml collagenase and 200 U/ml DNase I for 2 hours at 37° C./5% CO2 with intermittent mixing with a 10 ml pipet to disperse cells. Digestion was stopped by adding an equal volume of FACS buffer (1× Hanks Buffered Saline Solution (HBSS), 2% heat-inactivated Fetal Calf Serum (FCS) and 2 mM HEPES pH 7.4). Cells were filtered through 40 μm nylon filters and collected by centrifugation at 150×g for 5 minutes. Red blood cells were lysed in a hypotonic buffer containing ammonium chloride for 2 minutes on ice, and the cells were washed again with excess FACS buffer, and resuspended with FACS buffer at 1×10^7 cells/ml.
The freshly prepared single cell suspensions were stained for 20 minutes on ice with biotinylated anti-mouse H-2Kd (clone SF1-1.1, Biolegend, San Diego, Calif.) at 5 μg/ml, biotinylated anti-mouse CD45 (30-F11, Biolegend) at […], and streptavidin-PerCP-Cy5.5 (eBioscience, San Diego, Calif.) at 1:200 dilution. Unbound antibody was removed by washing twice with 10 volume of FACS buffer. […]

C28 tumors = assay: CK20 immunohistochemistry of treated C28 tumors; assay type: in vivo, NOD/SCID mice; conditions: vs control antibody
Procedure: Control and treated tumors from the C28 xenograft study described above (Example 6) were harvested at the end of the study. The tumors were excised and immunohistochemistry analysis was performed using standard techniques. Briefly, tumors were fixed in formalin, embedded in paraffin, and tumor sections of 4 um thickness were cut. After deparaffinization and hydration, the tumor sections were subjected to an antigen retrieval process in Tris buffer (pH 9.5). Sections were incubated with hydrogen peroxide (Sigma-Aldrich, St Louis, Mo.) for 10 minutes to block endogenous peroxidases. Anti-CK20 (clone Ks20.8, Dako, Carpinteria, Calif.) antibody in blocking buffer at 1:200 dilution (3% NHS, 1% BSA, 0.1% Tween-20, in PBS) was added to each section and incubated for 1 hour. Slides were rinsed 3 times in PBST for 5 minutes each. Anti-mouse secondary antibody conjugated with HRP (ImmPRESS™ anti-mouse Ig, Vector Laboratories Inc., Burlingame, Calif.) was added to the slides and incubated for 30 minutes. After multiple washes with PBST, Vector Nova Red substrate (Vector Laboratories Inc., Burlingame, Calif.) was added for localization of CK20 antigen.

PN21 pancreatic tumors = assay: In vivo limiting dilution assay of treated PN21 tumors; set-up: species or system NOD/SCID mice; conditions: day 72
Excerpt: As described above in Example 3, a limiting dilution assays was used to assess the effect of treatment with FZD8-Fc alone or in combination with gemcitabine on solid tumor cancer stem cells in the PN21 pancreatic tumor model.
Control and treated tumors from the PN21 xenograft study described above were harvested at the end of the study. The tumors were processed and dissociated into single cells. […] The human cells in the suspension were harvested, counted, and stained for cell surface markers and appropriate cell doses (30, 90, and 270 cells) in FACS buffer were mixed in a 1:1 mixture with Matrigel and injected subcutaneously in NOD/SCID mice (10 mice per cell dose per treatment group). […]
At the desired time point, the percentage of mice with detectable tumors was determined in all groups injected with treated tumor cells and compared to the percentage of mice with detectable tumors in control treated cells. For example, the number of mice injected with 125 control antibody-treated tumor cells that have detectable tumors is determined and compared to the number of mice injected with 125 FZD8-Fc treated tumor cells that have detectable tumors.
On day 72 after injection of the cells, tumor take rates in the various groups were determined and the cancer stem cell frequency was calculated using L-Calc™ software (StemCell Technologies Inc.; www.stemcell.com).

In the case of “54F03: Fri domain of human FZD8 fused to human IgG1 Fc with GRA linker; SEQ ID NO:1”, the “proliferating cells denoted by expression of Ki67” value (PN21 tumors) is reported as “decrease in proliferating cells”, the “cells expressing sialomucins (alcian blue)” value (PN21 tumors; vs control antibody or gemcitabine alone) is reported as “increase in cells expressing sialomucins” and the “percentage of CD44^hi cells” value (PN4 tumors) is reported as “decreased the percentage of CD44^hi cells”. For the same substance, the “percentage of CD201^+CD44^+ cells” value (PN4 tumors) was “decreased the percentage of CD201^+CD44^+ cells”, the “cells expressing CK20” value (C28 tumors) was “increase in cells expressing CK20” and the “reduction of cancer stem cell frequency as compared to control antibody” value (PN21 pancreatic tumors) was “four-fold”.

Source: patent publication US9157904B2, “Wnt antagonists and methods of treatment and screening” (OncoMed Pharmaceuticals, Inc., priority 2010, dated 2015)
